# Results taken from PubChem BioAssay AID272 (DTP/NCI, 2004).
# “And” between values parts separate entries of the source, which are not always exact repeats. Identical values can stand only once. Records with an inconclusive call do not appear.
# System: Lewis lung carcinoma i.m., BDF1 mice, T/C %
# Test: NCI In Vivo Anticancer Drug Screen. Data for tumor model Lewis Lung Carcinoma (intramuscular) in B6D2F1 (BDF1) mice
# Procedure, shortened: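 Compound given to mice with transplantable tumours; survival or tumour size compared against the vehicle control group, reported as T divided by C.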
# [1] = endpoint: median survival time, dose: 3.12 mg/kg/injection, schedule: Q01DX011 (ip), vehicle: saline, higher = longer survival
# [2] = endpoint: median survival time, dose: 25.0 mg/kg/injection, schedule: Q01DX011 (ip), vehicle: saline, higher = longer survival
# [3] = endpoint: median survival time, dose: 200.0 mg/kg/injection, schedule: Q01DX011 (ip), vehicle: saline, higher = longer survival
structure (smiles),measurement,setting,value
CC1=C2C(=CC(C)(C)[C@@H]2O)C(=O)[C@](C)(O)C12CC2,T/C,"endpoint: mean tumor weight, dose: 0.1 mg/kg/injection, schedule: Q01DX011 (ip), vehicle: other, higher = larger tumour",95 % of control
same,T/C,"endpoint: mean tumor weight, dose: 0.2 mg/kg/injection, schedule: Q01DX011 (ip), vehicle: other, higher = larger tumour",84 % of control
same,T/C,"endpoint: mean tumor weight, dose: 0.4 mg/kg/injection, schedule: Q01DX011 (ip), vehicle: other, higher = larger tumour",21 % of control
CN(C)c1nc(N(C)C)nc(N(C)C)n1,T/C,"endpoint: mean tumor weight (est.), dose: 25.0 mg/kg/injection, schedule: Q01DX011 (ip), vehicle: saline with Tween-80, higher = larger tumour",68 % of control
same,T/C,"endpoint: mean tumor weight (est.), dose: 50.0 mg/kg/injection, schedule: Q01DX011 (ip), vehicle: saline with Tween-80, higher = larger tumour",97 % of control
same,T/C,"endpoint: mean tumor weight (est.), dose: 100.0 mg/kg/injection, schedule: Q01DX011 (ip), vehicle: saline with Tween-80, higher = larger tumour",37 % of control
same,T/C,"endpoint: mean tumor weight, dose: 62.5 mg/kg/injection, schedule: Q01DX011 (ip), vehicle: steriod suspending solution, higher = larger tumour",68 % of control
same,T/C,"endpoint: mean tumor weight, dose: 125.0 mg/kg/injection, schedule: Q01DX011 (ip), vehicle: steriod suspending solution, higher = larger tumour",63 % of control
same,T/C,"endpoint: median survival time, dose: 62.5 mg/kg/injection, schedule: Q01DX011 (ip), vehicle: steriod suspending solution, higher = longer survival",100 % of control
same,T/C,"endpoint: median survival time, dose: 125.0 mg/kg/injection, schedule: Q01DX011 (ip), vehicle: steriod suspending solution, higher = longer survival",104 % of control
CC(=O)C(O)N1C(=O)C=CC1=O (stereo not given),T/C,"endpoint: median survival time, dose: 0.62 mg/kg/injection, schedule: Q01DX011 (ip), vehicle: water, higher = longer survival",88 % of control
same,T/C,"endpoint: median survival time, dose: 1.25 mg/kg/injection, schedule: Q#A X022 (ip), vehicle: water, higher = longer survival",120 % of control
same,T/C,"endpoint: median survival time, dose: 2.5 mg/kg/injection, schedule: Q01DX011 (ip), vehicle: water, higher = longer survival",123 % of control
same,T/C,"endpoint: median survival time, dose: 2.5 mg/kg/injection, schedule: Q#A X022 (ip), vehicle: water, higher = longer survival",120 % of control
same,T/C,"endpoint: median survival time, dose: 5.0 mg/kg/injection, schedule: Q#A X022 (ip), vehicle: water, higher = longer survival",113 % of control
N[C@H](C(=O)O)[C@@H]1CC(Cl)=NO1,T/C,"endpoint: median survival time, dose: 1.0 mg/kg/injection, schedule: Q01DX013 (ip), vehicle: saline, higher = longer survival",101 % of control
same,T/C,"endpoint: median survival time, dose: 2.0 mg/kg/injection, schedule: Q01DX013 (ip), vehicle: saline, higher = longer survival",100 % of control
O=C1C=C(SCCO)C(=O)c2ccccc21,T/C,"endpoint: mean tumor weight (est.), dose: 0.75 mg/kg/injection, schedule: Q01DX011 (ip), vehicle: other, higher = larger tumour",52 % of control
same,T/C,"endpoint: mean tumor weight (est.), dose: 1.5 mg/kg/injection, schedule: Q01DX011 (ip), vehicle: other, higher = larger tumour",40 % of control
same,T/C,"endpoint: mean tumor weight (est.), dose: 3.0 mg/kg/injection, schedule: Q01DX011 (ip), vehicle: other, higher = larger tumour",18 % of control
same,T/C,"endpoint: median survival time, dose: 0.75 mg/kg/injection, schedule: Q01DX011 (ip), vehicle: other, higher = longer survival",100 % of control
same,T/C,"endpoint: median survival time, dose: 1.5 mg/kg/injection, schedule: Q01DX011 (ip), vehicle: other, higher = longer survival",92 % of control
same,T/C,"endpoint: median survival time, dose: 3.0 mg/kg/injection, schedule: Q01DX011 (ip), vehicle: other, higher = longer survival",100 % of control
O=[N+]([O-])O.[Ga],T/C,"endpoint: mean tumor weight, dose: 3.12 mg/kg/injection, schedule: Q01DX011 (ip), vehicle: saline, higher = larger tumour",101 % of control
same,T/C,"endpoint: mean tumor weight, dose: 6.25 mg/kg/injection, schedule: Q01DX011 (ip), vehicle: saline, higher = larger tumour",104 % of control
same,T/C,"endpoint: mean tumor weight, dose: 12.5 mg/kg/injection, schedule: Q01DX011 (ip), vehicle: saline, higher = larger tumour",85 % of control
same,T/C,"endpoint: mean tumor weight, dose: 25.0 mg/kg/injection, schedule: Q01DX011 (ip), vehicle: saline, higher = larger tumour",84 % of control
same,T/C,[1],102 % of control
same,T/C,"endpoint: median survival time, dose: 6.25 mg/kg/injection, schedule: Q01DX011 (ip), vehicle: saline, higher = longer survival",97 % of control
same,T/C,"endpoint: median survival time, dose: 12.5 mg/kg/injection, schedule: Q01DX011 (ip), vehicle: saline, higher = longer survival",106 % of control
same,T/C,[2],93 % of control
COc1ccc([I+]c2ccc(OC)cc2)cc1,T/C,"endpoint: median survival time, dose: 0.78 mg/kg/injection, schedule: Q01DX011 (ip), vehicle: saline, higher = longer survival",110 % of control
same,T/C,"endpoint: median survival time, dose: 1.56 mg/kg/injection, schedule: Q01DX011 (ip), vehicle: saline, higher = longer survival",106 % of control
same,T/C,[1],98 % of control
O=C(Nc1ccc(S(=O)(=O)O)cc1)c1ccc([N+](=O)[O-])cc1,T/C,"endpoint: mean tumor weight (est.), dose: 3.5 mg/kg/injection, schedule: Q01DX011 (ip), vehicle: saline, higher = larger tumour",87 % of control
same,T/C,"endpoint: mean tumor weight (est.), dose: 7.0 mg/kg/injection, schedule: Q01DX011 (ip), vehicle: saline, higher = larger tumour",120 % of control
same,T/C,"endpoint: mean tumor weight (est.), dose: 14.0 mg/kg/injection, schedule: Q01DX011 (ip), vehicle: saline, higher = larger tumour",94 % of control
same,T/C,"endpoint: mean tumor weight (est.), dose: 28.0 mg/kg/injection, schedule: Q01DX011 (ip), vehicle: saline, higher = larger tumour",82 % of control
same,T/C,"endpoint: median survival time, dose: 3.5 mg/kg/injection, schedule: Q01DX011 (ip), vehicle: saline, higher = longer survival",92 % of control
same,T/C,"endpoint: median survival time, dose: 7.0 mg/kg/injection, schedule: Q01DX011 (ip), vehicle: saline, higher = longer survival",96 % of control
same,T/C,"endpoint: median survival time, dose: 14.0 mg/kg/injection, schedule: Q01DX011 (ip), vehicle: saline, higher = longer survival",105 % of control
same,T/C,"endpoint: median survival time, dose: 28.0 mg/kg/injection, schedule: Q01DX011 (ip), vehicle: saline, higher = longer survival",117 % of control
NCC(=O)c1ccc(O)c(O)c1,T/C,"endpoint: mean tumor weight (est.), dose: 100.0 mg/kg/injection, schedule: Q01DX011 (ip), vehicle: saline, higher = larger tumour",76 % of control
same,T/C,"endpoint: mean tumor weight (est.), dose: 200.0 mg/kg/injection, schedule: Q01DX011 (ip), vehicle: saline, higher = larger tumour",58 % of control
same,T/C,[3],96 % of control
O=C(O)CCCc1ccc(N(CCCl)CCCl)cc1,T/C,"endpoint: mean tumor weight, dose: 2.5 mg/kg/injection, schedule: Q01DX011 (ip), vehicle: carboxymethylcellulose (CMC), higher = larger tumour",92 % of control
same,T/C,"endpoint: mean tumor weight, dose: 5.0 mg/kg/injection, schedule: Q01DX011 (ip), vehicle: carboxymethylcellulose (CMC), higher = larger tumour",56 % of control
same,T/C,"endpoint: mean tumor weight, dose: 10.0 mg/kg/injection, schedule: Q01DX011 (ip), vehicle: carboxymethylcellulose (CMC), higher = larger tumour",56 % of control
same,T/C,"endpoint: median survival time, dose: 0.5 mg/kg/injection, schedule: Q01DX011 (ip), vehicle: saline, higher = longer survival",98 % of control and 101 % of control
same,T/C,"endpoint: median survival time, dose: 1.0 mg/kg/injection, schedule: Q01DX011 (ip), vehicle: saline, higher = longer survival",91 % of control and 92 % of control
same,T/C,"endpoint: median survival time, dose: 2.0 mg/kg/injection, schedule: Q01DX011 (ip), vehicle: saline, higher = longer survival",92 % of control and 110 % of control
same,T/C,"endpoint: median survival time, dose: 2.5 mg/kg/injection, schedule: Q01DX011 (ip), vehicle: carboxymethylcellulose (CMC), higher = longer survival",95 % of control
same,T/C,"endpoint: median survival time, dose: 4.0 mg/kg/injection, schedule: Q01DX011 (ip), vehicle: saline, higher = longer survival",97 % of control and 118 % of control
same,T/C,"endpoint: median survival time, dose: 5.0 mg/kg/injection, schedule: Q01DX011 (ip), vehicle: carboxymethylcellulose (CMC), higher = longer survival",122 % of control
same,T/C,"endpoint: median survival time, dose: 8.0 mg/kg/injection, schedule: Q01DX011 (ip), vehicle: saline, higher = longer survival",88 % of control and 105 % of control
same,T/C,"endpoint: median survival time, dose: 10.0 mg/kg/injection, schedule: Q01DX011 (ip), vehicle: carboxymethylcellulose (CMC), higher = longer survival",108 % of control
Cc1cc2nc(CBr)c(CBr)nc2cc1C,T/C,"endpoint: mean tumor weight (est.), dose: 0.75 mg/kg/injection, schedule: Q01DX011 (ip), vehicle: saline with Tween-80, higher = larger tumour",87 % of control
same,T/C,"endpoint: mean tumor weight (est.), dose: 1.5 mg/kg/injection, schedule: Q01DX011 (ip), vehicle: saline with Tween-80, higher = larger tumour",76 % of control
same,T/C,"endpoint: mean tumor weight (est.), dose: 3.0 mg/kg/injection, schedule: Q01DX011 (ip), vehicle: saline with Tween-80, higher = larger tumour",67 % of control
same,T/C,"endpoint: mean tumor weight (est.), dose: 6.0 mg/kg/injection, schedule: Q01DX011 (ip), vehicle: saline with Tween-80, higher = larger tumour",48 % of control
same,T/C,"endpoint: median survival time, dose: 0.75 mg/kg/injection, schedule: Q01DX011 (ip), vehicle: saline with Tween-80, higher = longer survival",100 % of control
same,T/C,"endpoint: median survival time, dose: 1.5 mg/kg/injection, schedule: Q01DX011 (ip), vehicle: saline with Tween-80, higher = longer survival",101 % of control
same,T/C,"endpoint: median survival time, dose: 3.0 mg/kg/injection, schedule: Q01DX011 (ip), vehicle: saline with Tween-80, higher = longer survival",86 % of control
same,T/C,"endpoint: median survival time, dose: 6.0 mg/kg/injection, schedule: Q01DX011 (ip), vehicle: saline with Tween-80, higher = longer survival",107 % of control
CC(=O)[C@@]1(O)CC[C@H]2[C@@H]3C[C@H](C)C4=CC(=O)C=C[C@]4(C)[C@@]3(F)[C@@H](O)C[C@@]21C,T/C,"endpoint: mean tumor weight, dose: 12.5 mg/kg/injection, schedule: Q01DX011 (ip), vehicle: steriod suspending solution, higher = larger tumour",40 % of control
same,T/C,"endpoint: mean tumor weight, dose: 25.0 mg/kg/injection, schedule: Q01DX011 (ip), vehicle: steriod suspending solution, higher = larger tumour",26 % of control
same,T/C,"endpoint: mean tumor weight, dose: 50.0 mg/kg/injection, schedule: Q01DX011 (ip), vehicle: steriod suspending solution, higher = larger tumour",19 % of control
same,T/C,"endpoint: median survival time, dose: 12.5 mg/kg/injection, schedule: Q01DX011 (ip), vehicle: steriod suspending solution, higher = longer survival",107 % of control
same,T/C,"endpoint: median survival time, dose: 25.0 mg/kg/injection, schedule: Q01DX011 (ip), vehicle: steriod suspending solution, higher = longer survival",94 % of control and 112 % of control
CN1CCN(c2ccc([N+](=O)[O-])c3no[n+]([O-])c23)CC1,T/C,"endpoint: median survival time, dose: 10.0 mg/kg/injection, schedule: Q02DX011 (ip), vehicle: saline with Tween-80, higher = longer survival",105 % of control
same,T/C,"endpoint: median survival time, dose: 20.0 mg/kg/injection, schedule: Q02DX011 (ip), vehicle: saline with Tween-80, higher = longer survival",94 % of control
Cc1nn(CCO)c(C)c1N=[N+]([O-])c1c(C)nn(CCO)c1C,T/C,"endpoint: median survival time, dose: 15.0 mg/kg/injection, schedule: Q02DX011 (ip), vehicle: saline with Tween-80, higher = longer survival",105 % of control
same,T/C,"endpoint: median survival time, dose: 30.0 mg/kg/injection, schedule: Q02DX011 (ip), vehicle: saline with Tween-80, higher = longer survival",86 % of control
same,T/C,"endpoint: median survival time, dose: 60.0 mg/kg/injection, schedule: Q02DX011 (ip), vehicle: saline with Tween-80, higher = longer survival",97 % of control
Clc1nc2ccccc2nc1CI,T/C,"endpoint: mean tumor weight (est.), dose: 5.0 mg/kg/injection, schedule: Q01DX011 (ip), vehicle: saline, higher = larger tumour",70 % of control
same,T/C,"endpoint: median survival time, dose: 5.0 mg/kg/injection, schedule: Q01DX011 (ip), vehicle: saline, higher = longer survival",100 % of control
CCOC(N)=O,T/C,[2],110 % of control
same,T/C,"endpoint: median survival time, dose: 100.0 mg/kg/injection, schedule: Q01DX011 (ip), vehicle: saline, higher = longer survival",100 % of control
same,T/C,[3],104 % of control
same,T/C,"endpoint: median survival time, dose: 400.0 mg/kg/injection, schedule: Q01DX011 (ip), vehicle: saline, higher = longer survival",110 % of control
